Results from US6649797B2, “Compounds and methods of use to treat infectious diseases” (The Picower Institute for Medical Research, priority 1996, dated 2003).
Where a name gives a salt, the structure may show the parent alone. Read-outs that look alike come from different tables or passages of the source. Each block holds one molecule with its values, some of them ahead of it.

Key:
[1] = Toxicity in mice, median lethal dose by intraperitoneal injection; type: in vivo, mouse; settings: for LD50: mouse, in vivo, ip, read-out: LD50 ± standard deviation
Procedure: The doses of compounds of the invention found to be lethal to 50% of the mice (LD50) were determined by intraperitoneal injection of groups of five animals with increasing doses of each compound. CNI-0294 was administered from 0, 2, 10, 20, 40, 80, 160, 320, 640, 1280 mg/kg in 0.5 ml of water/HCl; CNI-1594 at 0, 2.4, 5, 10, 20, 40, 80 mg/kg in 0.5 ml of water/HCl; CNI-1794 at 0, 20, 50, 80 mg/kg in 0.5 ml of water/HCl; and CNI-1894 at 0, 10, 20, 40, 80, 240, 480, 960 mg/kg in water/HCl. […] The percentage of animals in each group which died were utilized to calculate the LD50 by non-linear curve fitting with the Enzfit software (Elsevier Bioscience; Cambridge, UK) programmed with the Chou equation (Chou 1976, J Theor Biol 39:253-276)).

Plasmodium falciparum = test: Antimalarial activity in vitro, [3H]-hypoxanthine incorporation; type: cell-based; settings: clone Dd2
Source text: The antimalarial properties of the compounds of the invention can be analyzed by techniques, assays and experimental animal models well known in the art. For example, the inhibition of growth of Plasmodium falciparum in vitro by the compounds may be assessed by the hypoxanthine-incorporation method (Desjardins et al., 1979, Antimicrob. Ag. Chemother. 16:710-718). […] The in vivo efficacy of the compounds can also be tested in mouse models in which parasitemia is enumerated following administration of the compound (Ager, A. L. 1984, Rodent malaria models, pp 225-264. In Handbook of Experimental Pharmacology vol. 68, Antimalarial Drugs, Peters and Richards eds, Springer-Verlag, Berlin).
The antimalarial activity of the compounds was determined essentially as described in Desjardins et al. supra. Fifty μl of various concentrations of a compound of the invention, chloroquine, or pyrimethamine were added to the wells of microtiter plates, followed by 200 μl of ring-stage, synchronized, P. falciparum-infected erythrocytes (final hematocrit=1.5%, final parasitemia=1-5%). The plates were incubated for 24 hr in a candle jar kept at 37° C., and then 25 μl of [^3H]-hypoxanthine (Amersham, Arlington Heights, ILL.; 2.5 μl Ci/well) was added. The plates were then incubated for a further 24 hr, before harvesting onto Unifilter-96 GF/C filter-microplates (Packard; Meriden, Conn.). Twenty-five μl of Microscint scintillation fluid (Packard) was added to each well of the filter-microplate, which was subsequently counted in a Top-count microplate scintillation counter (Packard). The percent of [^3H]-hypoxanthine uptake relative to control infect-erythrocytes was used to determine the IC50 value for the compounds by non-linear regression for LD50 determination.

[2] = system: macrophage-tropic strain of HIV-1; test: Inhibition of HIV-1 replication in peripheral blood-derived macrophages (IC50, RT or p24 in medium); type: cell-based; settings: Human immunodeficiency virus 1, Macrophage, 120 h; 50% inhibition of viral growth; RT or p24 in medium about day 5 or 6 post-infection
Procedure: A quantitative measurement of the activity of the compounds of the invention to block the replication of HIV-1 in non-dividing cells can be determined by culture of a macrophage-tropic strain of HIV-1 on peripheral blood-derived macrophages. The cells are cultured for 5-6 days prior to infection in a medium consisting of DMEM supplemented with 10% type A/B human serum and 200 U/ml Macrophage Colony Stimulating Factor, with half the medium changed after 3 days, to reach a density of about 10^6 cells per 5 ml well. A macrophage-tropic viral stock may be grown on these cells. The concentration of infectious particles in the stock is estimated by measurement of p24 antigen concentration.
To test the effect of compounds of the invention on HIV-1 infection in the above-described culture system, the medium is removed and replaced with medium containing HIV-1 at a concentration of 1 ng of p24 (10^4 TCID50/ml (TCID=tissue culture infectious doses)) and a known concentration of the compound of the invention (the inhibitor). After 24 hours, the cultures are washed to remove non-adherent virus and the culture is re-fed with medium containing the inhibitor at the desired concentration. The amount of replication of HIV-1 is estimated by an assay of the reverse transcriptase activity or by an assay of the concentration of p24 antigen in the culture medium every 2-3 days throughout the post-infection period. In a preferred embodiment the anti-HIV potency of the candidate drug is measured by comparison of the concentration of reverse transcriptase (RT) or of p24 antigen in the medium of the treated and control cultures at the time of the peak of these values in non-treated control cultures, that is about day 5 or 6 post-infection. Repetition at various levels of inhibitor allows for the calculation of the concentration of inhibitor that achieves 50% inhibition of viral growth, IC50. Table I discloses the IC50 of various inhibitors.

[3] = Pharmacokinetics in mice (plasma, HPLC); type: in vivo, mouse; settings: for Dose: calculated from clearance for target serum conc. (No. 2: 10 nM; No. 11: 50 nM; No. 15: 15 nM); for AUC / Cmax / bioavailability / Tmax: female, ND4 Swiss Webster, plasma; for Tmax: read-out: tmax (converted)
Procedure: Standard addition curves for each test compound were constructed by adding increased amounts of drug to mouse or human A^+ plasma (Long Island Blood Services; Melville, N.Y). […] The column was washed with 1.0 ml of water and then eluted with 1.0 ml of 10 mM tetramethylammonium chloride/10 mM heptane sulfonate/4.2 mM H3PO4/95% CH3CN/5% H2O (Buffer C). The eluted sample was reduced to dryness in a rotary evaporator and resuspended in 1.0 ml Buffer A.
Two hundred μl of the resuspended sample was injected onto a Hewlett-Packard model 1090 high performance liquid chromatography system (HPLC)(Wilmington, Del.) equipped with a photodiode array ultraviolet/visible spectrophotometric detector, autosampler, and Chemstation operating software. The column used was a 250×4.6 mm Zorbax RX-C8 column (Mac-Mod Analyticals; Chadd's Ford, Pa.) kept at room temperature and run at 1.5 ml/min. The mobile phase used was Buffer A and 10 mM tetramethylammonium chloride/10 mM heptane sulfonate/4.2 mM H3PO4/75% CH3CN/25% H2O (Buffer B), with all runs initiated at 10% Buffer B. A linear 30 min gradient to 60% Buffer B was then performed, followed by a 4 min reverse gradient to initial conditions.
Female ND4 Swiss Webster mice (21-24 g) were obtained from Harlan Sprague Dawley (Indianapolis, Ind.) and randomly placed in groups of five in cages with free access to food and water. […] The other CNI compounds were administered intraperitoneally or by oral gavage as a solution in water titrated with sufficient HCl to dissolve the drug. At various time points, ranging from 5 min to 4 days, a single group of animals was euthanized by carbon dioxide inhalation and bled by cardiac puncture using heparin as an anticoagulant. The blood from the five mice in the group was pooled and centrifuged at 14000× g for 10 min. The volume of plasma was measured, and equal volume of Buffer A added, and the mixture extracted and analyzed as described above, except that the dried eluates were resuspended in 200 μl Buffer A and 100 μl was injected onto the high performance liquid chromatography (HPLC) system.
The area under the plasma concentration-time curve (AUC) was determined, and bioavailability was measured as AUCoral/AUCi.p. A and B represent the zero time intercept of the distribution and elimination phases respectively, and a and β the respective slopes of the phases multiplied by 2.303. The t/2α and t1/2β are calculated half-lives of the drug in each phase (0.693/α and 0.693/β respectively). The volume of distribution (VD) was calculated as dose/B, and the total clearance rate (Cltot) calculated as β*VD. Cmax and tmax are the maximal plasma concentration and time of this measurement, respectively.

[4] = In vitro metabolism with mouse liver post-mitochondrial supernatant and NADPH; type: in vitro ADME; settings: for metabolic conversion (drug altered, as judged by peak area): 60 min incubation
Procedure: Several female ND4 Swiss Webster mice were euthanized by carbon dioxide inhalation and the livers excised and rinsed with ice cold phosphate buffered saline (pH 7.4). The livers were minced, gently homogenized in 50 mM phosphate buffer (pH 7.4) with a Dounce homogenizer, and centrifuged at 9600× g for 20 min. The post-mitochondrial supernatant was kept, glycerol added to 20%, and frozen at −70° C in 1.0 ml aliquots until used. For each incubation, 1.0 ml of a 1.0 mg/ml drug solution was added to 3.0 ml of 50 mM phosphate buffer (pH 7.4), 1.0 ml of 2 mg/ml NADPH in 50 mM phosphate (pH 7.4), and 1.0 ml of the post-mitochondrial supernatant. Five hundred μl of each incubate was then immediately transferred to an ice-cold tube to provide the zero-time sample, and addition 500 μl aliquots removed to ice-cold tubes at 8, 15, 30, and 60 min. The samples were then extracted, and analyzed by HPLC as described in section 7.1. Control incubations were also performed where drug or post-10 mitochondrial supernatant was omitted. […] Peaks in the CNI compound incubations which increased over time, and were not present in control samples lacking the enzyme preparation were treated as putative metabolites.

HIV-1 = HIV-1 production in cultured monocytes at fixed 100 nM; type: cell-based; settings: monocytes infected 10 days prior to assay (10 ng p24/10^6 cells), percentage of untreated control
Procedure: Alternatively, the compounds may all be compared for inhibition of HIV replication at a fixed concentration. Presented in Table II are compounds that were used at a concentration of 100 nM to inhibit the production of HIV-1 in cultured monocytes infected with HIV-1 10 days prior to assay (10 ng of p24/10^6 cells). The production of HIV-1 in each treated culture is reported as percentage of untreated control.

HIV-1ADA = test: Anti-HIV activity in primary human monocytes, day 9 (Table IX, FIG. 12C); type: cell-based; settings: Human immunodeficiency virus 1, Monocyte, 216 h; day 9 after infection; >10 μM = 50% inhibition not achieved at maximal concentration; read-out: IC50
Procedure: Monocytes infected with HIV-1ADA were cultured in the presence of CNI-H0294 and CNI-H3094 in various concentrations. Nine days after infection, RT activity in culture supernatants was quantified. The results are presented as percent of total RT activity in untreated cultures (control). Three independent samples were assayed for each drug concentration, and the standard deviation was less than 15%.
[…] A 50% inhibitory concentration (IC50) was determined at day 9 after infection.

[5] = mouse, ip, 50 mg/kg, vehicle water
[6] = mouse, po, 50 mg/kg, vehicle water
[7] = mouse, i.p., 50 mg/kg, vehicle water
[8] = mouse, ip, 20 mg/kg, vehicle water
[9] = mouse, i.p., 20 mg/kg, vehicle water

melting point: 238 to 240 °C
Structure (SMILES): CC(=O)c1cccc(Nc2cc(C)[n+](C)c(N)n2)c1 (as salt: iodide) [Compound No. 14, 4-(3-acetylphenyl)amino-2-amino-1,6-dimethylpyrimidinium iodide]

Structure (SMILES): CC(=O)c1cc(Nc2cc(C)nc(N)n2)cc(C(C)=O)c1 [Compound No. 11, 2-amino-4-(3,5-diacetylphenyl)amino-6-methylpyrimidine]
visible signs of toxicity [1]: well tolerated
LD50 [1]: > 160 mg/kg
less active than CNI-0294 (Plasmodium falciparum): approximately 5 fold
IC50 [2]: 50 nM
Dose [3]: 13.3 mg/Kg day
AUC [3, 5]: 3930 ng·h/mL
Cmax [3, 5]: 5700 ng/mL
bioavailability ([3]; mouse, oral, mice, single 50 mg/kg dose, AUCoral against AUCi.p., read-out: relative bioavailability): 15%
AUC [3, 6]: 570 ng·h/mL
Cmax [3, 6]: 350 ng/mL
Tmax ([3]; ip, mouse, i.p., 50 mg/kg, vehicle water): 15 min
bioavailability ([3]; mouse, oral, 50 mg/kg, vehicle water, AUCoral/AUCi.p., read-out: Bioavailability): 15%
Tmax ([3]; mouse, oral, 50 mg/kg, vehicle water): 15 min
maximal plasma level ([3]; mice, oral, single 50 mg/kg dose): 0.35 µg/mL
A (zero time intercept of the distribution phase) [3, 7]: 5.22 µg/mL
B (zero time intercept of the elimination phase) [3, 7]: 0.14 µg/mL
Cltot [3, 7]: 16.50 mL/min
VD [3, 7]: 5.21 L
t1/2α [3, 7]: 22.8 min
t1/2β [3, 7]: 219 min
α [3, 7]: 1.83 h⁻¹
β [3, 7]: 0.19 h⁻¹
metabolites produced [4]: three minor and one major metabolite
metabolic conversion (drug altered, as judged by peak area) [4]: 65.19%

Structure (SMILES): CC(=O)c1cc(NC(=N)NC(=N)N)cc(C(C)=O)c1.Cl [Compound No. 12, N-(3,5-diacetylphenyl)biguanide hydrochloride]
Viral Production (HIV-1): 12%
melting point: 260 to 270 °C (dec.)

Structure (SMILES): CC(=O)c1cc(Nc2nc(N)nc(N)n2)cc(C(C)=O)c1 [Compound No. 13, 2-(3,5-diacetylphenyl)amino-4,6-diamino-1,3,5-triazine]
Viral Production (HIV-1): 14%
melting point: 271 to 272 °C

IC50 (HIV-1ADA): 1000 nM
Structure (SMILES): CC(=O)c1cccc(Nc2cc(C)[n+](C)c(N)n2)c1 [Compound No. 14, 4-(3-acetylphenyl)amino-2-amino-1,6-dimethylpyrimidinium iodide]
IC50 [2]: 10 nM

Structure (SMILES): CC(=O)c1cccc(Nc2cc(C)nc(N)n2)c1 [Compound No. 15, 4-(3-acetylphenyl)amino-2-amino-6-methylpyrimidine]
visible signs of toxicity [1]: death occurring in minutes and the animals displaying signs of acute neurotoxicity
LD50 [1]: 49.04 ± 0.08 mg/kg
IC50 [2]: 15 nM
Dose [3]: 5.70 mg/Kg day
AUC [3, 8]: 820 ng·h/mL
Cmax [3, 8]: 1930 ng/mL
Tmax ([3]; ip, mouse, i.p., 20 mg/kg, vehicle water): 15 min
A (zero time intercept of the distribution phase) [3, 9]: 1.10 µg/mL
B (zero time intercept of the elimination phase) [3, 9]: 0.01 µg/mL
Cltot [3, 9]: 26.40 mL/min
t1/2α [3, 9]: 19.2 min
t1/2β [3, 9]: 1040 min
α [3, 9]: 2.14 h⁻¹
β [3, 9]: 0.04 h⁻¹
metabolites produced [4]: three minor and one major metabolite
metabolic conversion (drug altered, as judged by peak area) [4]: 11.74%
